Measured values taken from US4361579A, “Organogermanium compounds” (Yoshitomi Pharmaceutical Industries, Ltd., priority 1979, dated 1982).

What was measured:
[1] = system: rosette forming cells (RFC) in thymus; assay: Activity for Antibody Production: rosette forming cells (RFC) in thymus after sensitization with sheep red blood cells; assay type: in vivo, mouse (C57B1/6); settings: Control = 100, 7 days after sensitization
Experimental: (§1) C57B1/6 mice (6 week old, 20 g) were sensitized by intraperitoneally administering sheep red blood cells of 5×10^8 /0.1 ml. Compounds tested were given orally on the same day and next day of the sensitization. Seven days after the sensitization, the number of plaque forming cells (PFC) in spleen and of rosette forming cells (RFC) in spleen and thymus were measured in a usual manner.

[2] = system: rosette forming cells (RFC) in spleen; assay: Activity for Antibody Production: rosette forming cells (RFC) in spleen after sensitization with sheep red blood cells; assay type: in vivo, mouse (C57B1/6); settings: Control = 100, 7 days after sensitization
Experimental: as §1

[3] = system: plaque forming cells (PFC) in spleen; assay: Activity for Antibody Production: plaque forming cells (PFC) in spleen after sensitization with sheep red blood cells; assay type: in vivo, mouse (C57B1/6); settings: Control = 100, 7 days after sensitization
Experimental: as §1

[4] = system: emigrating leukocytes; assay: Potentiating Activity for Leukocyte Migration (CMC pouch); assay type: in vivo, rat (male Donryu); settings: 6 hours, vs control group
Experimental: The test was performed according to the method described by H. Ishikawa et al in "Yakugaku Zasshi (Journal of the Pharmaceutical Society of Japan)", vol. 88, 1472 (1968).
Male Donryu rats weighing about 150 g were divided into groups of 4 to 5 animals each. Five ml of 2% suspension of carboxymethylcellulose (CMC) in physiological saline was injected subcutaneously in the supra-scapular area. Compounds tested (0.4 ml/rat) were administered into the CMC pouch immediately after the injection of CMC suspension. Six hours later, 0.1 ml of fluid in the CMC pouch was collected and mixed with 6 ml of 0.05% brilliant cresyl blue solution in phosphate buffer (pH 7.2). The suspension was put in a Burker chamber and the emigrating leukocytes were counted under a microscope. The percent potentiation was calculated as compared with the count in the control group.

[5] = system: Adjuvant Arthritis; assay: Prophylactic Effect on Adjuvant Arthritis (hind feet swelling); assay type: in vivo, rat (Lewis male); settings: day 1 to day 20, hind feet swelling at 28 days
Experimental: The tails of Lewis male rats (250 g) were injected mycobacterium butyricum (0.5 mg/0.1 ml). Compounds tested were orally administered daily from the adjuvant inoculation day (day 1) to day 20. Swellings in the hind feet were measured at 28 days after the adjuvant inoculation.

[6] = system: rat; assay: Acute Toxicity (rat, per os); assay type: in vivo; settings: 2000 mg/kg
Description: | Acute Toxicity (rat, per os)

[7] = 30 mg/kg orally, *p < 0.05, **p < 0.01
[8] = 3 mg/kg orally, *p < 0.05, **p < 0.01

Substance | RFC in Thymus [1, 7] | RFC in Spleen ([2]; 30 mg/kg orally, **p < 0.01) | PFC in Spleen ([3]; 30 mg/kg orally, *p < 0.05) | Potentiation (%) ([4]; 20 mg/rat into the CMC pouch) | Inhibition (%) ([5]; 25 mg/kg orally daily) | Inhibition (%) ([5]; 100 mg/kg orally daily) | Potentiation (%) ([4]; 5 mg/rat into the CMC pouch) | Potentiation (%) ([4]; 10 mg/rat into the CMC pouch) | RFC in Thymus [1, 8] | RFC in Spleen ([2]; 3 mg/kg orally, *p < 0.05) | PFC in Spleen ([3]; 3 mg/kg orally) | further results
poly(carboxyethylgermanium sesquioxide) [Comparison, reference compound] | 168 | 121 | 100 | 13 | -18 | 15 |  |  |  |  |  | 
polycondensation product of p-(N-ethyl-3-ethoxycarbonylpropionylamino)phenylgermanium trihydroxide [Compound D] |  |  |  | 210 |  |  | 7 | 33 |  |  |  | 
polycondensation product of p-(N-methyl-4-carboxybutyrylamino)phenylgermanium trihydrodie |  |  |  |  |  |  |  | 44 | 141 | 85 | 95 | 
polycondensation product of p-(N-methyl-m-methylbenzoylamino)phenylgermanium trihydroxide |  |  |  | 55 |  |  |  | 46 |  |  |  | 
polycondensation product of p-(N-methyl-3-carboxypropionylamino)phenylgermanium trihydroxide |  |  |  | 47 | 35 | 53 |  | 26 | 218 | 86 | 68 | 
polycondensation product of p-(N-ethyl-2-ethoxycarbonylacetylamino)phenylgermanium trihydroxide |  |  |  | 96 |  |  | 87 |  |  |  |  | Potentiation (%) ([4]; 0.25 mg/rat into the CMC pouch): 7%
polycondensation product of p-(N-methyl-3-ethoxycarbonylpropionylamino)phenylgermanium trihydroxide | 248 | 108 | 81 |  | 5 | 31 | 87 |  |  |  |  | Potentiation (%) ([4]; 2.5 mg/rat into the CMC pouch): 17%
polycondensation product of p-(N-methyl-2-ethoxycarbonylacetylamino)phenylgermanium trihydroxide | 431 | 703 | 175 | 91 | 48 |  |  | 16 | 284 | 346 | 125 | RFC in Thymus ([1]; 1 mg/kg orally, **p < 0.01): 315; RFC in Spleen ([2]; 1 mg/kg orally): 157; PFC in Spleen ([3]; 1 mg/kg orally): 110; Mortality [6]: 0/5; Inhibition (%) ([5]; 10 mg/kg orally daily): 22%
polycondensation product of p-(N-methyl-4-ethoxycarbonylbutyrylamino)phenylgermanium trihydroxide |  |  |  | 56 |  |  |  |  |  |  |  | 
